Experiment [1] addresses Dual specificity protein kinase CLK1 (Homo sapiens) (UniProt P49759).
The target in experiment [2] is T1, Serine/threonine-protein kinase 17A (Homo sapiens) (UniProt Q9UEE5).
T1 sequence (whole entry): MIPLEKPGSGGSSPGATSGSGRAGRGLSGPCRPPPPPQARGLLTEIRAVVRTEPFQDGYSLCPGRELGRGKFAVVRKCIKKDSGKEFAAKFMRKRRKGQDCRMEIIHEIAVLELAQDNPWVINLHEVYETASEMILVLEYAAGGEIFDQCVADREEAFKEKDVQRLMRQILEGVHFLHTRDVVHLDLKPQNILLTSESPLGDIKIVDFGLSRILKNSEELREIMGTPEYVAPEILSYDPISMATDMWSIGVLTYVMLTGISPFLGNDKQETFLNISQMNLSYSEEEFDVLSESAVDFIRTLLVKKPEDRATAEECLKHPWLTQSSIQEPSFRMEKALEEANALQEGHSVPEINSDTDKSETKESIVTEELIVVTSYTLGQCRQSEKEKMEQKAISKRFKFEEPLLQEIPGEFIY

Experiment [3] has as its target Serine/threonine-protein kinase 10 (Homo sapiens) (UniProt O94804).
For experiment [4], the target named is Serine/threonine-protein kinase 26 (Homo sapiens) (UniProt Q9P289).
Experiment [5] has as its target Glycogen synthase kinase-3 beta (Homo sapiens, UniProt P49841).
Experiment [6] has as its target TRAF2 and NCK-interacting protein kinase (Homo sapiens) (UniProt Q9UKE5).
Experiment [7] addresses Ribosomal protein S6 kinase alpha-3 (Homo sapiens) (UniProt P51812).
Experiment [8] concerns the target T2, Lymphokine-activated killer T-cell-originated protein kinase (Homo sapiens) (UniProt Q96KB5).
T2 sequence (whole entry): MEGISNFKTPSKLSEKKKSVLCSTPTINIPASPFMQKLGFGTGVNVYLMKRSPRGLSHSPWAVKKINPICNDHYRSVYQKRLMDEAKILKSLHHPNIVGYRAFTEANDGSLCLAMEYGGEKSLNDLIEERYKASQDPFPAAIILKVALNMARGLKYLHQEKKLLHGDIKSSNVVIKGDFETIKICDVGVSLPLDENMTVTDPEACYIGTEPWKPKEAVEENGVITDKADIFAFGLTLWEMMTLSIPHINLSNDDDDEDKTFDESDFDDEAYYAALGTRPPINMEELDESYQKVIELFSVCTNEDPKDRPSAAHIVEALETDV

For experiment [9], the target named is T3, Myotonin-protein kinase (Homo sapiens) (UniProt Q09013).
T3 sequence (whole entry): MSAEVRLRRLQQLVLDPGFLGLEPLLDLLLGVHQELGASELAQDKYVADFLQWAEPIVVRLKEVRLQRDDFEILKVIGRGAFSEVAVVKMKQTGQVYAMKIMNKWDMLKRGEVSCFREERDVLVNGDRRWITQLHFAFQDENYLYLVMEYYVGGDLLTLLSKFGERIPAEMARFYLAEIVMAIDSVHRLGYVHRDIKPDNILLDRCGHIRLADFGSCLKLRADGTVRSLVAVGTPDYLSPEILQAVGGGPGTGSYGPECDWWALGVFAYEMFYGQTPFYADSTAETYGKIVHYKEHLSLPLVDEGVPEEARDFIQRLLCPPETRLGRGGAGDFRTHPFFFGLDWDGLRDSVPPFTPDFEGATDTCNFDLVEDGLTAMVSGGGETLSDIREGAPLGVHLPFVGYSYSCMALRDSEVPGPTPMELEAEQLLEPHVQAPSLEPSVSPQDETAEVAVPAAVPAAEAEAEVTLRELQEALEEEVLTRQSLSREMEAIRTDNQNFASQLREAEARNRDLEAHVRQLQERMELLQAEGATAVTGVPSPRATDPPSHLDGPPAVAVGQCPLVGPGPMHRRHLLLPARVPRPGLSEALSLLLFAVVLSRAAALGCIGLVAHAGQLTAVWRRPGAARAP

Experiment [10] addresses Calcium/calmodulin-dependent protein kinase type II subunit beta (Homo sapiens) (UniProt Q13554).
Experiment [11] concerns the target Cyclin-dependent kinase 6 (Homo sapiens) (UniProt Q00534).
The target in experiment [12] is Serine/threonine-protein kinase PAK 4 (Homo sapiens) (UniProt O96013).
The target in experiment [13] is Calcium/calmodulin-dependent protein kinase kinase 2 (Homo sapiens, UniProt Q96RR4).
Experiment [14] deals with Calcium/calmodulin-dependent protein kinase type II subunit delta (Homo sapiens) (UniProt Q13557).
Experiment [15] concerns the target T4, Serine/threonine-protein kinase VRK1 (Homo sapiens) (UniProt Q99986).
T4 sequence (whole entry): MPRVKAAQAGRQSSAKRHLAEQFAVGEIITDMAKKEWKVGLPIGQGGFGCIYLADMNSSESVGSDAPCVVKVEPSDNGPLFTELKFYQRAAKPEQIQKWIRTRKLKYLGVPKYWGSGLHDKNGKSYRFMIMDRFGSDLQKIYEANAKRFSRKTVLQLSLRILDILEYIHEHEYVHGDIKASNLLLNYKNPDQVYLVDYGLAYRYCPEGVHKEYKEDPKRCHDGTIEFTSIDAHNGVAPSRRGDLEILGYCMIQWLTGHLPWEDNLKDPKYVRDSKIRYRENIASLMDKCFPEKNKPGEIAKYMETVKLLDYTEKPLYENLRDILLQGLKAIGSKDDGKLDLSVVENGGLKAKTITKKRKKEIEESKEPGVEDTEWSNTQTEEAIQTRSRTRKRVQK

Chain of Serine/threonine-protein kinase 10 (Homo sapiens) (O94804 whole entry, looked up): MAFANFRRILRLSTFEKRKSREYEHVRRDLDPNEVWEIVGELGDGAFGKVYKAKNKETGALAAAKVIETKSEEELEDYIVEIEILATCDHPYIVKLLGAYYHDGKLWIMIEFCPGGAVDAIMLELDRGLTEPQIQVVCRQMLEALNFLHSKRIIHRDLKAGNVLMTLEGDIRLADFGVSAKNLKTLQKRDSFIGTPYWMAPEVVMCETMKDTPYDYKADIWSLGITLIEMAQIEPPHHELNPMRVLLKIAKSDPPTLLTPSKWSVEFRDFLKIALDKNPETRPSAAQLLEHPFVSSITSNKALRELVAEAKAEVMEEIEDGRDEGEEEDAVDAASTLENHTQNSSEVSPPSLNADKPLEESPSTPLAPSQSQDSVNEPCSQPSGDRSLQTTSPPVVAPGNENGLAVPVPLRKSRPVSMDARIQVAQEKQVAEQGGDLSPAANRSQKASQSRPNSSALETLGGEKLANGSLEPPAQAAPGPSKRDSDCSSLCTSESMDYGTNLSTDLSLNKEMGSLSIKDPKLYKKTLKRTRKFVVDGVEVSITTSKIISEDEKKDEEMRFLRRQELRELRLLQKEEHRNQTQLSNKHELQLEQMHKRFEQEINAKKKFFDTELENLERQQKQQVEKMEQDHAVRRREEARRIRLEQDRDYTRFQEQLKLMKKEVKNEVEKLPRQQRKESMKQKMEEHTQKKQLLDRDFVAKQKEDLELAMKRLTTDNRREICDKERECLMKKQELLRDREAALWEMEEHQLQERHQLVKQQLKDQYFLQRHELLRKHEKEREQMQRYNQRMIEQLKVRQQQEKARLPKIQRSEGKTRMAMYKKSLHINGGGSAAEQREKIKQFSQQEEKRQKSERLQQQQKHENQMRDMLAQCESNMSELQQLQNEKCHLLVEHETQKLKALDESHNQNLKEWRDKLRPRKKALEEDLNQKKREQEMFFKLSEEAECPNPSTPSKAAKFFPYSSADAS
Chain of Calcium/calmodulin-dependent protein kinase type II subunit beta (Homo sapiens) (Q13554 whole entry): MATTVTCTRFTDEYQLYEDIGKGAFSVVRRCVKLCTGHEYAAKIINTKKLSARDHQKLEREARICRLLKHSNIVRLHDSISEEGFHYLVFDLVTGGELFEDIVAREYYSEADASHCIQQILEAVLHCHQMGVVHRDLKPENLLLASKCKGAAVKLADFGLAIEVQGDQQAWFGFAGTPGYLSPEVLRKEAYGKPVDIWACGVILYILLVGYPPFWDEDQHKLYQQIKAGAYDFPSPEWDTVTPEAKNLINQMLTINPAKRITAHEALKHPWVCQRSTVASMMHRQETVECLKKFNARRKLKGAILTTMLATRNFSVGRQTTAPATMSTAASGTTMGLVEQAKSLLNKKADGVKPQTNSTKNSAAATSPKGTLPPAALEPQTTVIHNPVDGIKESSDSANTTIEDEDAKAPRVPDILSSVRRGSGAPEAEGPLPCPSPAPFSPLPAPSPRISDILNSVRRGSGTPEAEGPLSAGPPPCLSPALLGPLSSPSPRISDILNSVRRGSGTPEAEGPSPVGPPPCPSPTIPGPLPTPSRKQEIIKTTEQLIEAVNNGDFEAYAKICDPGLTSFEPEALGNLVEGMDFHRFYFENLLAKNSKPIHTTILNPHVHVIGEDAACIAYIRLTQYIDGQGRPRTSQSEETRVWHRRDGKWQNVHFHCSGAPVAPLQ
Chain of Dual specificity protein kinase CLK1 (Homo sapiens) (P49759 whole entry, looked up): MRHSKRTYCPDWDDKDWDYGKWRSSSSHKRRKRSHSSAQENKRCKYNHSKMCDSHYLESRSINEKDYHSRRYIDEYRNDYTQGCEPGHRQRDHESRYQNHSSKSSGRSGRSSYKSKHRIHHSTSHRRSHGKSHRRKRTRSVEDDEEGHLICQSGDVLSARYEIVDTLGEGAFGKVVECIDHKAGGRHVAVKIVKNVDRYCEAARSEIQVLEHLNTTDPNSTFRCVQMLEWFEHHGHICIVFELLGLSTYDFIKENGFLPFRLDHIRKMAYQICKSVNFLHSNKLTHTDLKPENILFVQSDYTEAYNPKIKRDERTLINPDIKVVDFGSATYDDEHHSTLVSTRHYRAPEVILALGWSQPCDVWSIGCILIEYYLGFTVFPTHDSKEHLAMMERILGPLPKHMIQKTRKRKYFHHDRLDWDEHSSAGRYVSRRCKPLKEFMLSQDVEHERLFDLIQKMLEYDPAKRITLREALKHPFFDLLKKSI
Chain of Calcium/calmodulin-dependent protein kinase kinase 2 (Q96RR4 2-588 limits assumed): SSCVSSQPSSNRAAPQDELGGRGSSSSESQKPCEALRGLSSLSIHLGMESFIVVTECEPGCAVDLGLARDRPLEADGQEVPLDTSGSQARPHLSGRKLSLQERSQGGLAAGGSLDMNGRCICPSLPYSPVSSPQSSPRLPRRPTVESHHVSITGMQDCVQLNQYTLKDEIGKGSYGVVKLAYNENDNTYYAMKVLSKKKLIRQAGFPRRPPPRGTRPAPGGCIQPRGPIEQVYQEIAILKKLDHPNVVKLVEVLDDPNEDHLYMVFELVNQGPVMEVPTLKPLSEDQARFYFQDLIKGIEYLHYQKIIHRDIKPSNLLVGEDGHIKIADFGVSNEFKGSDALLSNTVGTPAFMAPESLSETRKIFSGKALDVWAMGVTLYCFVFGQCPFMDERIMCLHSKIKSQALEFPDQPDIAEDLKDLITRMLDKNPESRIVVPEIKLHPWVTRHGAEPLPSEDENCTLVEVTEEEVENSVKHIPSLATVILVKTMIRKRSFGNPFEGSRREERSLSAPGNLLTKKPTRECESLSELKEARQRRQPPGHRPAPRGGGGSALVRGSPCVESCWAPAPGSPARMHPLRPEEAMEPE
Chain of Serine/threonine-protein kinase 26 (Homo sapiens) (Q9P289 2-416 limits assumed): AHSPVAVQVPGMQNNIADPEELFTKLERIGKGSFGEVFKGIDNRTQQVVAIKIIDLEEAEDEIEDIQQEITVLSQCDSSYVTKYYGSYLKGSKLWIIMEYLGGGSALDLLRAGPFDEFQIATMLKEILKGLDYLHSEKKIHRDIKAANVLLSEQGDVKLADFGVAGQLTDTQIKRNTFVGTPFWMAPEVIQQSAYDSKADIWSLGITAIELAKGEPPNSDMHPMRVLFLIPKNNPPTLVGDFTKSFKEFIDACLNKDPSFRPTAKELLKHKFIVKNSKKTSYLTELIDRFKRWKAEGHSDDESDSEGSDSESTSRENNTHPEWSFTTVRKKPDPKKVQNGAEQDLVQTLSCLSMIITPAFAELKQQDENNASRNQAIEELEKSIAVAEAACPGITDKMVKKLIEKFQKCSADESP
Chain of Calcium/calmodulin-dependent protein kinase type II subunit delta (Homo sapiens) (Q13557 whole entry): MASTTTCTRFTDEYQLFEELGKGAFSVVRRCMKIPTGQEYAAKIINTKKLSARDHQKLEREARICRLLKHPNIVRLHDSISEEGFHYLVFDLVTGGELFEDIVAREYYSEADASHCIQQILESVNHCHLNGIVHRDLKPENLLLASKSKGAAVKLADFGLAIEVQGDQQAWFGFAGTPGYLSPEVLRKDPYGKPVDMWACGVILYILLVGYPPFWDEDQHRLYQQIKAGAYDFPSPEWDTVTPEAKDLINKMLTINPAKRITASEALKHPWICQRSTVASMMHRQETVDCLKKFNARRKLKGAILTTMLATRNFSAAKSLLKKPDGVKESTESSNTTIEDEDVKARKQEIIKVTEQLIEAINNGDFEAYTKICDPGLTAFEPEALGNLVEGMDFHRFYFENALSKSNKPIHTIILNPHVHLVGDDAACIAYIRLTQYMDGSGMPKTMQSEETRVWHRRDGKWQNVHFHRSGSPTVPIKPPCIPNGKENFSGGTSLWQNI
Chain of Cyclin-dependent kinase 6 (Homo sapiens) (Q00534 whole entry): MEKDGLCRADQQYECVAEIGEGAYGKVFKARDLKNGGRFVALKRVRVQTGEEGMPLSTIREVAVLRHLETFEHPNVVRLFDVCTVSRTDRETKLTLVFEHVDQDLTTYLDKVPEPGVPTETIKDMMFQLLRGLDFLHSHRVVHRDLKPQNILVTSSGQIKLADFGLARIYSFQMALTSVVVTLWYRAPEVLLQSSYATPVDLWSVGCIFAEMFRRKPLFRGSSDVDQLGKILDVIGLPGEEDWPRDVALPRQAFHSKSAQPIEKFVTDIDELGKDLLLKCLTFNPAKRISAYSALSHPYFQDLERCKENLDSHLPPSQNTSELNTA
Chain of Glycogen synthase kinase-3 beta (P49841 whole entry, looked up): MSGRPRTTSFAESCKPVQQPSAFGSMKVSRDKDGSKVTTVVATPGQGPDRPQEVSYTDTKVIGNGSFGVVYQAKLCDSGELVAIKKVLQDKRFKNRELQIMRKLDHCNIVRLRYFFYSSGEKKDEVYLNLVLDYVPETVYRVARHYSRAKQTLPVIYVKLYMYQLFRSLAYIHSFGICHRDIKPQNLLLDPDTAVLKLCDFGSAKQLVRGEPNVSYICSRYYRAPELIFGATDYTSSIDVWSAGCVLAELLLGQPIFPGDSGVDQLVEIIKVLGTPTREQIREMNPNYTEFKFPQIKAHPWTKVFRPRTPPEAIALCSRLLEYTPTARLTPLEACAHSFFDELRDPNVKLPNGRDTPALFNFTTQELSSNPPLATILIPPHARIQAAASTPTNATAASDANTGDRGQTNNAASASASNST
Chain of Serine/threonine-protein kinase PAK 4 (Homo sapiens) (O96013 whole entry, looked up): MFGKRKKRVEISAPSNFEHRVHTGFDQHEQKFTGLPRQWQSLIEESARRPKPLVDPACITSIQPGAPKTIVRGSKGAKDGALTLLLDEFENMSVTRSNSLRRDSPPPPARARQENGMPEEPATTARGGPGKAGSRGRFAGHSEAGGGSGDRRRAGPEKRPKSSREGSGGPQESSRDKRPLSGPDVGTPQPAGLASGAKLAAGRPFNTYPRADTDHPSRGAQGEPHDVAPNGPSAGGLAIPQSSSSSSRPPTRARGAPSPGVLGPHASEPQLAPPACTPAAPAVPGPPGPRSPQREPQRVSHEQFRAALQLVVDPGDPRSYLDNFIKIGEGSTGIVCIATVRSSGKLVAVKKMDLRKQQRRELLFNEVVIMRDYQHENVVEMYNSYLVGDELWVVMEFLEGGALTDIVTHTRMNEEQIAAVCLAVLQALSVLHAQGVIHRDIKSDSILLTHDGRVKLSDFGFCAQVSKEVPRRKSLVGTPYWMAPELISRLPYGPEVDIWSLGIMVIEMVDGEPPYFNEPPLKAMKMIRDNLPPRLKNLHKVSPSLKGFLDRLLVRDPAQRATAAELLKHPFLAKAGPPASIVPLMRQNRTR

In general, ΔTm refers to the change in melting temperature against a reference sample. Turning to `COc1cc2ncnc(Nc3cccc(O)c3)c2cc1OC`, the shift in melting temperature (ΔTm) turned out to be 3.8 °C in experiment [1]; 3.7 °C in experiment [2]; 4.2 °C in experiment [3]; 0.1 °C in [4]; 2.2 °C in [5]; 0.9 °C in experiment [6]. The ΔTm in experiment [7] is 0.9 °C; in experiment [8], -0.1 °C; in experiment [9] it was 0.9 °C; in [10] it was 0.2 °C; in experiment [11], -0.2 °C; in experiment [12], 1 °C. Besides, the ΔTm in experiment [13] was 1.1 °C; in experiment [14] it was -0.6 °C.

Take `Cc1nc(Nc2ncc(C(=O)Nc3c(C)cccc3Cl)s2)cc(N2CCN(CCO)CC2)n1`: the ΔTm was 0.4 °C in [1]; 1.9 °C in experiment [5]; 0.9 °C in [7]; 4.6 °C in experiment [9]; -0.3 °C in [10]; -0.1 °C in [11]. Also, the ΔTm in experiment [12] turned out to be 1.6 °C; in experiment [13], 0.6 °C; in [14], 0 °C.

In the case of `N#C/C(=C1/Nc2ccccc2S1)c1ccnc(NCCc2cccnc2)n1`, the thermal shift (ΔTm) was determined as 1.3 °C in [15]; 5.9 °C in experiment [1]; 4.7 °C in [2]; 1.4 °C in experiment [3]; 0.9 °C in [4]; 11.4 °C in [5]. The thermal shift (ΔTm) in experiment [6] stood at 3.4 °C; in experiment [8] it was 0.8 °C; in [9], 6 °C; in experiment [10], 1.8 °C; in experiment [11], 3.5 °C; in experiment [12] it was 1.3 °C. In addition, the ΔTm in experiment [13] came out at 3.7 °C; in [14], 2.1 °C.

With `COc1ccc(CNC(=O)Nc2ncc([N+](=O)[O-])s2)cc1`, the ΔTm is -0.5 °C in experiment [15]; 0.7 °C in experiment [1]; 0.5 °C in [2]; 1.1 °C in experiment [3]; 1.5 °C in [4]; 7.3 °C in experiment [5]. Besides, the thermal shift (ΔTm) in experiment [6] was 0.3 °C; in experiment [8], 0.3 °C; in experiment [9], 0.1 °C; in experiment [10], -0.5 °C; in experiment [11] it was 0.2 °C; in [12] it was 0.4 °C. Further, the results for the ΔTm in [13] and in [14] were 0 °C and -0.2 °C, respectively.

Take `CN1CCC(Nc2ncc3ncnc(Nc4ccc(F)c(Cl)c4)c3n2)CC1` [FALNIDAMOL]: the shift in melting temperature (ΔTm) was 0.5 °C in experiment [1]; 1.7 °C in [5]; 1.4 °C in experiment [9]; -0.4 °C in experiment [10]; 1 °C in experiment [11]; 1.5 °C in [12]. In addition, the thermal shift (ΔTm) is -0.1 °C in experiment [13] and 0.5 °C in experiment [14].

Take `CCN(CC)CCNC(=O)c1c(C)[nH]c(/C=C2\C(=O)Nc3ccc(F)cc32)c1C`: the ΔTm in experiment [15] is 6.8 °C; in [1], 5.1 °C; in [2] it was 8.3 °C; in [3], 11.3 °C; in [4], -0.1 °C; in experiment [5], 12.1 °C. For the same molecule, the ΔTm in [6] came to 0.7 °C; in [8] it was 0.4 °C; in [9], 2.7 °C; in experiment [10], 2.2 °C; in [11] it was 2.1 °C; in experiment [12], 3.3 °C. The ΔTm in experiment [13] turned out to be 6.8 °C; in experiment [14], 2.3 °C.

As to `C[C@@H](N)[C@H]1CC[C@H](C(=O)Nc2ccncc2)CC1`, the ΔTm stood at 0.9 °C in experiment [15]; 2.1 °C in experiment [1]; 1.3 °C in experiment [2]; 1.2 °C in [3]; 0.3 °C in [4]; 0.6 °C in experiment [5]. In addition, the ΔTm is 0.1 °C in experiment [6]; 0.9 °C in [8]; 0.3 °C in experiment [9]; 1 °C in [11]; 1.1 °C in experiment [12]; -0.8 °C in experiment [13]. In experiment [14], the thermal shift (ΔTm) turned out to be 0.7 °C.

In the case of `Clc1ccc(Nc2nnc(Cc3ccncc3)c3ccccc23)cc1`, the ΔTm in [1] is 0.1 °C; in experiment [5] it was 0.3 °C; in experiment [7] it was -0.4 °C; in experiment [9], -0.5 °C; in experiment [10], -0.3 °C; in experiment [11], 0.3 °C. Further, the ΔTm in [12] was -0.1 °C; in [13] it was 0.5 °C; in experiment [14], -0.4 °C.

The values above are taken from ChEMBL document CHEMBL1145498, “A systematic interaction map of validated kinase inhibitors with Ser/Thr kinases” (Proc Natl Acad Sci U S A, 2007).
